We go through nine molecules from patent US20260116920A1, “HUMAN TRANSFERRIN RECEPTOR BINDING PEPTIDE” (PEPTIDREAM INC., priority 2021, published 2026).

Starred links: 1 amine or outer side, 2 acyl side, 3 side chain; linkers in the order of their positions; H or OH if unused. Positions of bridges follow the written chain, without caps; N, C: chain ends. Non-standard residues stand in square brackets, D forms with d. Residues, ends and D or L forms follow the SMILES beside them. Groups on a side chain read outwards from the residue. *: point of attachment. Trp(1-CH2COOH) = N[C@@H](Cc1cn(CC(=O)O)c2ccccc12)C(=O)O; BCN(endo) = O=C(OC[C@@H]1[C@@H]2CCC#CCC[C@@H]21)*; Nle(6-morpholino) = N[C@@H](CCCCN1CCOCC1)C(=O)O; Phe(3-COOH) = N[C@@H](Cc1cccc(C(=O)O)c1)C(=O)O; Trp(7-aza) = N[C@@H](Cc1c[nH]c2ncccc12)C(=O)O; NH(CH2CH2O)8Me = COCCOCCOCCOCCOCCOCCOCCOCCN*; NMePhe(3-Cl) = CN[C@@H](Cc1cccc(Cl)c1)C(=O)O; Piperazinyl(4-CH2COOH) = O=C(O)CN1CCN(*)CC1; 3Pal(6-NH2) = Nc1ccc(C[C@H](N)C(=O)O)cn1; Lys(N3) = [N-]=[N+]=NCCCC[C@H](N)C(=O)O; NMeY = CN[C@@H](Cc1ccc(O)cc1)C(=O)O; NH(CH2CH2O)4Me = COCCOCCOCCOCCN*; 3Pal = N[C@@H](Cc1cccnc1)C(=O)O; 4Pal = N[C@@H](Cc1ccncc1)C(=O)O; PEG4 = NCCOCCOCCOCCOCCC(=O)O; Carboxymethyl = O=C(O)C*; CO = O=C([*:1])[*:2]

T1 sequence (P02786 89-760 limits assumed): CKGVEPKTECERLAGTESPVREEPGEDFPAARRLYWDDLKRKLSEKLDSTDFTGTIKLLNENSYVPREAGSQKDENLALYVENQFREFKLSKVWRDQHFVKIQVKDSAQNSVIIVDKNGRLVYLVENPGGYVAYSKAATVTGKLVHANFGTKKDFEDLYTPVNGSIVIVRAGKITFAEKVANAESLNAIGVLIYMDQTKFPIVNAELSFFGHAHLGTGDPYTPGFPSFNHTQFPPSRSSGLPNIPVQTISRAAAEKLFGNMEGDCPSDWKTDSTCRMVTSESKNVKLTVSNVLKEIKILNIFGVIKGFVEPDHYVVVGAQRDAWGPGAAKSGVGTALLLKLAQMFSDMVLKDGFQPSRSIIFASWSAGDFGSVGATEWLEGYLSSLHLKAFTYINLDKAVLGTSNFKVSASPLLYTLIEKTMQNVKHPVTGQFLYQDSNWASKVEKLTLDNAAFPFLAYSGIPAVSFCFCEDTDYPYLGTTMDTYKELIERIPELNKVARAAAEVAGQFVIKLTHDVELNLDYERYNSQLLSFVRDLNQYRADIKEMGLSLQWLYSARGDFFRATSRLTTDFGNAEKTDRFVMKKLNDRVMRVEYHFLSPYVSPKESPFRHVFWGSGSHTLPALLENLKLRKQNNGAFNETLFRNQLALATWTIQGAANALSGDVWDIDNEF

One assay has as its target T1, human transferrin receptor (hTfR) (Homo sapiens, UniProt P02786).
T1 construct: made in house
Description: Evaluation of molecular interaction between transferrin receptor (hTfR) and peptide using surface plasmon resonance (SPR). Type of assay: binding. The settings on record: KD class for binding to hTfR by SPR; peptide with the linker shown in the same line; 'low signal indicates no activity'; read-out: SPR. The procedure, abridged:
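Single-cycle SPR kinetics, KD by least-squares sensorgram fitting, with peptide series of 100, 50, 25, 10 and 5 nM. Running buffer: 10 mM HEPES pH 8.0, 150 mM NaCl, 0.05% Tween 20, 0.1% BSA, 1.0% DMSO. Surface: hTfR dimer covalently coupled (EDC/NHS) onto Ni-NTA chip.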
Regarding `CC[C@H](C)[C@@H]1NC(=O)[C@H](Cc2cccnc2)NC(=O)[C@H](Cc2ccc(N)nc2)NC(=O)[C@H](CC(N)=O)NC(=O)[C@H](Cc2cn(CC(=O)O)c3ccccc23)NC(=O)[C@H](C(C)C)NC(=O)[C@H](Cc2cccc(Cl)c2)N(C)C(=O)[C@H](C(C)C)NC(=O)[C@H](C)NC(=O)CSC[C@@H](C(=O)NCC(=O)N[C@@H](CCCCN=[N+]=[N-])C(N)=O)NC(=O)[C@H](Cc2ccc(O)cc2)N(C)C(=O)[C@H](Cc2ccncc2)NC(=O)[C@H](CCCNC(=N)N)NC(=O)[C@H](CCCNC(=N)N)NC(=O)[C@H]([C@@H](C)CC)NC1=O` [894_3186] ({CH2CO}-AV[NMePhe(3-Cl)]V[Trp(1-CH2COOH)]N[3Pal(6-NH2)][3Pal]IIRR[4Pal][NMeY]CG[Lys(N3)]-NH2; thioether N-15), the Kd lay in the range of 1 to 100 nM.

With `CC[C@H](C)[C@@H]1NC(=O)[C@H](Cc2ccc(OC)cc2)NC(=O)[C@H](Cc2ccc(O)cc2)NC(=O)[C@H](CC(N)=O)NC(=O)[C@H](Cc2c[nH]c3ccc(Cl)cc23)NC(=O)[C@H](C(C)C)NC(=O)[C@H](Cc2ccccc2)N(C)C(=O)[C@H](C(C)C)NC(=O)[C@H](C)NC(=O)CSC[C@@H](C(=O)NCC(=O)N[C@@H](CCCCN=[N+]=[N-])C(N)=O)NC(=O)[C@H](Cc2ccc(O)cc2)N(C)C(=O)[C@H](Cc2ccc(O)cc2)NC(=O)[C@H](CCCNC(=N)N)NC(=O)[C@H](CCCNC(=N)N)NC(=O)[C@H]([C@@H](C)CC)NC1=O` [894_3162], the Kd is 1 to 100 nM. As for `CC[C@H](C)[C@@H]1NC(=O)[C@H](Cc2ccc(OCC(=O)O)cc2)NC(=O)[C@H](Cc2ccc(O)cc2)NC(=O)[C@H](CC(N)=O)NC(=O)[C@H](Cc2cn(CC(=O)O)c3ccccc23)NC(=O)[C@H](C(C)C)NC(=O)[C@H](Cc2cccc(Cl)c2)N(C)C(=O)[C@H](C(C)C)NC(=O)[C@H](C)NC(=O)CSC[C@@H](C(=O)NCC(=O)N[C@H](CO)C(=O)N[C@H](CO)C(=O)N[C@H](CO)C(=O)N[C@H](CO)C(=O)N[C@H](CO)C(=O)N[C@@H](CCCCNC(=O)OC[C@@H]2[C@@H]3CCC#CCC[C@@H]32)C(N)=O)NC(=O)[C@H](Cc2ccc(O)cc2)N(C)C(=O)[C@H](Cc2ccccc2)NC(=O)[C@H](CCCNC(=N)N)NC(=O)[C@H](CCCNC(=N)N)NC(=O)[C@H]([C@@H](C)CC)NC1=O` [894_3198] ({CH2CO}-AV[NMePhe(3-Cl)]V[Trp(1-CH2COOH)]NYY(Carboxymethyl)IIRRF[NMeY]CG[dS][dS][dS][dS][dS]K(BCN(endo))-NH2; thioether N-15), the Kd was below 1 nM.

Still in this assay, the particulars now being: peptide with linker, surface plasmon resonance; read-out: SPR (KD class for binding to hTfR).
With `CC[C@H](C)[C@@H]1NC(=O)[C@H](Cc2ccc(OC)cc2)NC(=O)[C@H](Cc2ccc(N)nc2)NC(=O)[C@H](CC(N)=O)NC(=O)[C@H](Cc2c[nH]c3ncccc23)NC(=O)[C@H](C(C)C)NC(=O)[C@H](Cc2cccc(Cl)c2)N(C)C(=O)[C@H](C(C)C)NC(=O)[C@H](C)NC(=O)CSC[C@@H](C(=O)NCCOCCOCCOCCOCCC(N)=O)NC(=O)[C@H](Cc2ccc(O)cc2)N(C)C(=O)[C@H](Cc2ccncc2)NC(=O)[C@H](CCCCN2CCOCC2)NC(=O)[C@H](CCC(=O)NCCOCCOCCOCCOCCOCCOCCOCCOC)NC(=O)[C@H]([C@@H](C)CC)NC1=O` [compound 236] ({CH2CO}-AV[NMePhe(3-Cl)]V[Trp(7-aza)]N[3Pal(6-NH2)]Y(Me)IIE(NH(CH2CH2O)8Me)[Nle(6-morpholino)][4Pal][NMeY]C[PEG4]-NH2; thioether N-15), the Kd lay within 1 to 100 nM.

The same assay, now with this note: surface plasmon resonance, binding to hTfR; KD class symbol; read-out: SPR (KD value).
For `CC[C@H](C)[C@@H]1NC(=O)[C@H](Cc2cccnc2)NC(=O)[C@H](Cc2ccc(O)cc2)NC(=O)[C@H](CC(N)=O)NC(=O)[C@H](Cc2c[nH]c3ccccc23)NC(=O)[C@H](C(C)C)NC(=O)[C@H](Cc2cccc(Cl)c2)N(C)C(=O)[C@H](C(C)C)NC(=O)[C@H](C)NC(=O)CSC[C@@H](C(=O)NCCOCCOCCOCCOCCC(N)=O)NC(=O)[C@H](Cc2ccc(O)cc2)N(C)C(=O)[C@H](Cc2ccccc2)NC(=O)[C@H](CCCNC(=N)N)NC(=O)[C@H](CCCNC(=N)N)NC(=O)[C@H]([C@@H](C)CC)NC1=O` [compound 60] ({CH2CO}-AV[NMePhe(3-Cl)]VWNY[3Pal]IIRRF[NMeY]C[PEG4]-NH2; thioether N-15), the Kd is 1 to 100 nM. Turning to `CC[C@H](C)[C@@H]1NC(=O)[C@H](Cc2ccc(OC)cc2)NC(=O)[C@H](Cc2ccc(O)cc2)NC(=O)[C@H](CC(N)=O)NC(=O)[C@H](Cc2cn(CC(=O)O)c3ccccc23)NC(=O)[C@H](C(C)C)NC(=O)[C@H](Cc2cccc(Cl)c2)N(C)C(=O)[C@H](C(C)C)NC(=O)[C@H](C)NC(=O)CSC[C@@H](C(=O)NCCOCCOCCOCCOCCC(N)=O)NC(=O)[C@H](Cc2ccc(O)cc2)N(C)C(=O)[C@H](Cc2ccccc2)NC(=O)[C@H](CCCNC(=N)N)NC(=O)[C@H](CCCNC(=N)N)NC(=O)[C@H](CCC(=O)O)NC1=O` [compound 43], the Kd is 1 to 100 nM. Consider `CC[C@H](C)[C@@H]1NC(=O)[C@H](Cc2cccnc2)NC(=O)[C@H](Cc2ccc(O)cc2)NC(=O)[C@H](CC(N)=O)NC(=O)[C@H](Cc2c[nH]c3ccccc23)NC(=O)[C@H](C(C)C)NC(=O)[C@H](Cc2cccc(Cl)c2)N(C)C(=O)[C@H](C(C)C)NC(=O)[C@H](C)NC(=O)CSC[C@@H](C(=O)NCC(=O)N[C@H](CCC(=O)O)C(=O)N[C@H](CCC(=O)O)C(=O)N[C@H](CCC(=O)O)C(=O)N[C@H](CO)C(=O)N[C@H](CO)C(=O)N[C@@H](CCCCN=[N+]=[N-])C(N)=O)NC(=O)[C@H](Cc2ccc(O)cc2)N(C)C(=O)[C@H](Cc2ccncc2)NC(=O)[C@H](CCCNC(=N)N)NC(=O)[C@H](CCCNC(=N)N)NC(=O)[C@H]([C@@H](C)CC)NC1=O` [compound 69], for which the Kd is 1 to 100 nM. On the same count and under the same terms, the result for `CC[C@H](C)[C@@H]1NC(=O)[C@H](Cc2cccnc2)NC(=O)[C@H](Cc2ccc(N)nc2)NC(=O)[C@H](CC(N)=O)NC(=O)[C@H](Cc2cn(CC(=O)O)c3ccccc23)NC(=O)[C@H](C(C)C)NC(=O)[C@H](Cc2cccc(Cl)c2)N(C)C(=O)[C@H](C(C)C)NC(=O)[C@H](C)NC(=O)CSC[C@@H](C(=O)NCCOCCOCCOCCOCCC(N)=O)NC(=O)[C@H](Cc2ccc(O)cc2)N(C)C(=O)[C@H](Cc2cccc(C(=O)O)c2)NC(=O)[C@H](CCC(=O)NCCOCCOCCOCCOCCOCCOCCOCCOC)NC(=O)[C@H](CCCNC(=N)N)NC(=O)[C@H]([C@@H](C)CC)NC1=O` [compound 85] ({CH2CO}-AV[NMePhe(3-Cl)]V[Trp(1-CH2COOH)]N[3Pal(6-NH2)][3Pal]IIRE(NH(CH2CH2O)8Me)[Phe(3-COOH)][NMeY]C[PEG4]-NH2; thioether N-15) reads 100 to 1000 nM; that for `CC[C@H](C)[C@@H]1NC(=O)[C@H](Cc2ccc(OCC(=O)O)cc2)NC(=O)[C@H](Cc2ccc(O)cc2)NC(=O)[C@H](CC(N)=O)NC(=O)[C@H](Cc2cn(CC(=O)O)c3ccccc23)NC(=O)[C@H](C(C)C)NC(=O)[C@H](Cc2cccc(Cl)c2)N(C)C(=O)[C@H](C(C)C)NC(=O)[C@H](C)NC(=O)CSC[C@@H](C(=O)NCCOCCOCCOCCOCCC(N)=O)NC(=O)[C@H](Cc2ccc(O)cc2)N(C)C(=O)[C@H](Cc2ccccc2)NC(=O)[C@H](CCCCNC(=O)N2CCN(CC(=O)O)CC2)NC(=O)[C@H](CCC(=O)NCCOCCOCCOCCOC)NC(=O)[C@H]([C@@H](C)CC)NC1=O` [compound 115] ({CH2CO}-AV[NMePhe(3-Cl)]V[Trp(1-CH2COOH)]NYY(Carboxymethyl)IIE(NH(CH2CH2O)4Me)K([CO-Piperazinyl(4-CH2COOH)])F[NMeY]C[PEG4]-NH2; thioether N-15), 1 to 100 nM.
